According to patent US11717580B2, “Cyclodextrin-linked polyvalent ligands for complexation of metal ions” (UTI LIMITED PARTNERSHIP, priority 2018, dated 2023):
Like-named read-outs stand apart in the source and are kept apart here. Each block holds one compound with its values, some of them ahead of it.

Columns and labels:
HepG2 cells = experiment: In vitro cytotoxicity MTT assay, HepG2; type: cell-based; conditions: concentrations higher than 1 mM
[1] = Potentiometric titrations of compound 5 with Gd(III) (stability constants and speciation of Gd(III) complexes); type: binding
From the text: Considering the collection of results obtained for the Gd(III)-compound 5, the best chemical model which fits the data corresponds to: (1) mononuclear GdL species for Gd:L ratio lower than 1, (2) binuclear species Gd2L for Gd:L ratio higher than 1 or (3) trinuclear species Gd3L for Gd:L ratio higher than 2.
The complexation of compound 5 with Gd(III) was studied by potentiometric titrations. While maintaining the amount of compound 5 (0.5 μmol) and HCl (9.95 μmol) constant within the cell, a solution of GdCl3 was then added to reach a specified ratio. This solution was then titrated with tetramethylammonium hydroxide (NMe4OH). It was noted that with the solution containing the highest Gd:L ratios, the addition of same amount of base caused a slower increase of pH (FIG. 12A). This could be explained by the displacement of protons from the protonated groups during Gd(III) complexation, thus acidifying the medium.
The stability constants of the Gd(III) complexes are expressed by the general formula:
[formula] with M being the metal ion, L the ligand, and H the proton (the charges are omitted), and dissociation constant Kmlh can be defined similarly to the case of free ligand as:
[formula] [formula] [formula] Analogously, pKmlh=log βmlh−log βmlh-1 (equation 6)
The stability constants of the Gd(III) complexes are reported in the Table 2 and distribution curves given in FIGS. 12B, 12C and 12D, respectively for 1:1, 2:1 and 3:1 Gd(III):compound 5 ratios.

[2] = Potentiometric titrations of compound 5 (protonation constants); type: physicochemical
Description: T=298K, [L]=0.0625-1 μmol, [extra-HCl]=0-37.3 μmol in NMe4Cl (0.1 M); total initial volume: 4 mL; burette: [NMe4OH]=0.05 M.
Potentiometric titrations were performed to study the deprotonation of compound 5 (FIG. 6). The initial solution of compound 5 alone has a pH of ˜8.4; this value correlates well with extensive deprotonation observed in ATR-FTIR spectrum. Therefore, a solution of HCl in trimethylammonium chloride (0.1 M) was gradually added to the solution to obtain a series of solutions with varied HCl/5 ratios (0→597), while maintaining the total volume constant. To each prepared solution, a titrant solution of tetramethylammonium hydroxide (0.05 M) was added while the pH of the solution recorded; this enabled preparation of a series of titration curves (FIG. 7).
The protonation constant βh for the following equilibrium is defined by equation 1, where L represents the fully deprotonated form (L^14−) of compound 5 (LH14). H is the proton (charges are omitted).
[formula] As dissociation constants Ka are commonly defined by:
[formula] [formula] [formula] it is evident that Ka=log βh−log βh-1 (equation 3)
Table 1 reports all protonation constants determined by titration curve refinement and the corresponding acidity constants. All pKa values were ascribed to successive deprotonation of the carboxylic acids, followed by ammonium functions.

HeLa cells = experiment: In vitro cytotoxicity MTT assay, HeLa; type: cell-based; conditions: concentrations higher than 1 mM
[3] = cited from earlier work
[4] = 12 MHz; cited from earlier work

pH of initial solution ([2]; compound 5 alone): ~8.4
log βLHh ([2]; species LH): 8.80
pKa ([2]; species LH): 8.80
log βLHh ([2]; species LH2): 17.77
pKa ([2]; species LH2): 9.08
log βLHh ([2]; species LH3): 26.44
pKa ([2]; species LH3): 8.56
log βLHh ([2]; species LH4): 34.51
pKa ([2]; species LH4): 8.07
log βLHh ([2]; species LH5): 42.44
pKa ([2]; species LH5): ~7.93
log βLHh ([2]; species LH6): 50.03
pKa ([2]; species LH6): ~7.59
log βLHh ([2]; species LH7): 56.23
pKa ([2]; species LH7): 6.20
log βLHh ([2]; species LH8): 61.22
pKa ([2]; species LH8): 4.99
log βLHh ([2]; species LH9): 64.85
pKa ([2]; species LH9): 3.63
log βLHh ([2]; species LH10): 67.42
pKa ([2]; species LH10): 2.57
pKa ([2]; species LH11-LH21): <2
SMILES: O=C(O)CN(CC(=O)O)Cc1cn(C[C@H]2O[C@@H]3O[C@H]4[C@H](O)[C@@H](O)[C@@H](O[C@H]5[C@H](O)[C@@H](O)[C@@H](O[C@H]6[C@H](O)[C@@H](O)[C@@H](O[C@H]7[C@H](O)[C@@H](O)[C@@H](O[C@H]8[C@H](O)[C@@H](O)[C@@H](O[C@H]9[C@H](O)[C@@H](O)[C@@H](O[C@H]2[C@H](O)[C@H]3O)O[C@@H]9Cn2cc(CN(CC(=O)O)CC(=O)O)nn2)O[C@@H]8Cn2cc(CN(CC(=O)O)CC(=O)O)nn2)O[C@@H]7Cn2cc(CN(CC(=O)O)CC(=O)O)nn2)O[C@@H]6Cn2cc(CN(CC(=O)O)CC(=O)O)nn2)O[C@@H]5Cn2cc(CN(CC(=O)O)CC(=O)O)nn2)O[C@@H]4Cn2cc(CN(CC(=O)O)CC(=O)O)nn2)nn1 [Compound 5]
cytotoxic effect (inhibition) (HepG2 cells): 20-40%
log βMLHh ([1]; dinuclear species Gd2L (MLH 210)): 36.28
log βGd (210)−log βGd (110) ([1]; introduction of second Gd(III) cation): 11.19
log βGd (310)−log βGd (210) ([1]; introduction of third Gd(III) cation): 7.63
cytotoxic effect (inhibition) (HeLa cells): 20-40%

SMILES: CC[N+](CC)(CC)CC [triethylammonium]
pKa [3]: ~10.75

SMILES: CO[C@@H]1[C@@H](OC)[C@H]2O[C@H]3[C@H](OC)[C@@H](OC)[C@@H](O[C@H]4[C@H](OC)[C@@H](OC)[C@@H](O[C@H]5[C@H](OC)[C@@H](OC)[C@@H](O[C@H]6[C@H](OC)[C@@H](OC)[C@@H](O[C@H]7[C@H](OC)[C@@H](OC)[C@@H](O[C@H]8[C@H](OC)[C@@H](OC)[C@@H](O[C@@H]1[C@@H](CN(CC(=O)O)CC(=O)O)O2)O[C@@H]8CN(CC(=O)O)CC(=O)O)O[C@@H]7CN(CC(=O)O)CC(=O)O)O[C@@H]6CN(CC(=O)O)CC(=O)O)O[C@@H]5CN(CC(=O)O)CC(=O)O)O[C@@H]4CN(CC(=O)O)CC(=O)O)O[C@@H]3CN(CC(=O)O)CC(=O)O [compound 3]
relaxivity [4]: 8.8 mM⁻¹ s⁻¹
